Results from US20090221624A1, “4-AMINOQUINOLINE COMPOUNDS FOR TREATING VIRUS-RELATED CONDITIONS” (priority 2005, published 2009).
Where two headings read alike, the source gives them in different places.

How the values were obtained:
[1] = system: HCV replicon (Clone A cells, Huh7, subgenomic hepatits C virus RNA); assay: HCV Neo screening assay (HCV replicon, NPTII ELISA); assay type: cell-based, hepatitis C virus; details: for inhibition at 25 µM / EC50: Hepatitis C virus, Huh-7; for inhibition at 25 µM: primary screening, 25 μM final concentration, 24 hours, percent inhibition of viral replication, read-out: HCV Inh; for EC50: Secondary Data, HCV; for HCV TI: therapeutic index CC50/EC50, HCV
RSV minigenome = assay: RSV minigenome-dependent β-galactosidase expression assay (RSV β-Gal); assay type: cell-based, respiratory syncytial virus; details: for EC50 / inhibition at 25 µM: human respiratory syncytial virus; for EC50: RSV; for inhibition at 25 µM: primary screening, 25 μM final concentration, 24 hours, percent inhibition of viral replication, read-out: RSV Inh; for RSV TI: therapeutic index CC50/EC50, RSV
WNV (WN-hRuPac cells) = assay: WNV antiviral activity, WN-hRuPac cells, Renilla luciferase; assay type: cell-based, West Nile virus; details: for EC50 / inhibition at 25 µM: West Nile virus; for EC50: read-out: WNV EC50; for inhibition at 25 µM: primary screening, 25 μM final concentration, 24 hours, percent inhibition of viral replication, read-out: WNV Inh; for WNV TI: therapeutic index CC50/EC50, WNV
YFV (YF-hRuPac cells) = assay: microbe, parasite or virus in culture; assay type: cell-based, yellow fever virus; details: for inhibition at 25 µM / EC50: Yellow fever virus; for inhibition at 25 µM: 24 h, read-out: YFV Inh; for EC50: read-out: YFV EC50
DNG (D2-hRuPac cells) = assay: DNG antiviral activity, D2-hRuPac cells, Renilla luciferase; assay type: cell-based, Dengue fever virus; details: Dengue virus, secondary screening
EBOV minigenome = assay: microbe, parasite or virus in culture; assay type: cell-based, Ebola virus; details: Zaire ebolavirus; for inhibition at 25 µM: 24 h, read-out: EBOV Inh; for EC50: read-out: EBOV EC50
SINV (SR19-F-luc cells) = assay: SINV antiviral activity, SR19-F-luc cells, Firefly luciferase; assay type: cell-based; details: Sindbis virus; for inhibition at 25 µM: primary screening, 25 μM final concentration, 24 hours, percent inhibition of viral replication, read-out: SINV Inh; for EC50: secondary screening, SR19-F-luc cells
[2] = Secondary Data, read-out: RSV EC50

Structure (SMILES) | inhibition at 25 µM [1] | inhibition at 25 µM (RSV minigenome) | RSV TI (RSV minigenome) | inhibition at 25 µM (WNV (WN-hRuPac cells)) | WNV TI (WNV (WN-hRuPac cells)) | YFV TI (YFV (YF-hRuPac cells)) | inhibition at 25 µM (YFV (YF-hRuPac cells)) | EC50 (YFV (YF-hRuPac cells)) | EC50 (DNG (D2-hRuPac cells)) | inhibition at 25 µM (EBOV minigenome) | EC50 (EBOV minigenome) | inhibition at 25 µM (SINV (SR19-F-luc cells)) | EC50 (SINV (SR19-F-luc cells)) | CC50 (in vitro; DNG CC50) | CC50 (in vitro; EBOV CC50) | CC50 (in vitro; HCV CC50) | CC50 (in vitro; RSV CC50) | CC50 (in vitro; SINV CC50) | CC50 (in vitro; WNV CC50) | CC50 (in vitro; YFV CC50) | also measured
Cc1ccc2nc(C)cc(Nc3ccccc3)c2c1 [Compound 3] | 32.1% | 86.3% | 4.63 | 38.7% | 1.75 | 2.84 | 41.7% | 18.4 µM | 34.2 µM | -44.2% | 65.2 µM | 76.1% | 1.29 µM | 52.3 µM | 52.3 µM | 32.3 µM | 52.3 µM | 52.3 µM | 52.3 µM | 52.3 µM | EC50 (RSV minigenome; read-out: RSV EC50, Secondary Data): 11.3 µM; EC50 (WNV (WN-hRuPac cells)): 29.9 µM
CCOC(=O)c1cnc2ccc(OCC)cc2c1Nc1ccccc1CC [Compound 34] | 78.6% | 77.3% | 12.19 | 60.4% | 1.58 | 2.69 | 58.5% | 23 µM | ≥ 75 µM | 53.8% | 75 µM | 34% | ≥ 75 µM | 61.9 µM | 61.9 µM | 35.6 µM | 61.9 µM | 61.9 µM | 61.9 µM | 61.9 µM | EC50 [1]: 11.4 µM; HCV TI [1]: 3.12; EC50 (RSV minigenome; [2]): 5.08 µM; EC50 (WNV (WN-hRuPac cells); Secondary Data, WNV): 39.1 µM
CCOC(=O)c1cnc2ccc(F)cc2c1NCCCN(C)C [Compound 66] | 39.6% | 17.6% | 1.44 | 40.8% | 2.82 | 0.86 | 11.4% | ≥ 75 µM | 51.4 µM | 84.1% | 14.1 µM | 14.9% | 9.53 µM | 64.6 µM | 64.6 µM |  | 64.6 µM | 64.6 µM | 64.6 µM | 64.6 µM | EC50 (RSV minigenome; [2]): 44.8 µM; EC50 (WNV (WN-hRuPac cells); Secondary Data, WNV): 22.9 µM
CCOC(=O)c1cnc2c(OC)cccc2c1NC(C)c1ccccc1 (stereo not drawn) [Compound 71] | 80.1% | 93.3% | 11.03 | 24.7% | 3.55 | 0.84 | 71.2% | 58.5 µM | 37.2 µM | 90.1% | 29.5 µM | 49.1% | 5.52 µM | 49.3 µM | 49.3 µM | 39.6 µM | 49.3 µM | 49.3 µM | 49.3 µM | 49.3 µM | EC50 [1]: 8.95 µM; HCV TI [1]: 4.42; EC50 (RSV minigenome; [2]): 4.47 µM; EC50 (WNV (WN-hRuPac cells); Secondary Data, WNV): 13.9 µM
CC(=O)c1cccc(Nc2cc(C)nc3c(C)cc(C)cc23)c1 [Compound 48] | 151% | 78% | 3.08 | 58.5% | 1.2 | 1.61 | 62.1% | 15.9 µM | 10.5 µM | 29.4% | 26.4 µM | 70.3% | 2.47 µM | 25.6 µM | 25.6 µM | 14.1 µM | 25.6 µM | 25.6 µM | 25.6 µM | 25.6 µM | EC50 [1]: 10 µM; HCV TI [1]: 1.41; EC50 (RSV minigenome; [2]): 8.32 µM; EC50 (WNV (WN-hRuPac cells); Secondary Data, WNV): 21.3 µM
Cc1ccc2nc3c(c(Nc4ccc(N5CCOCC5)cc4)c2c1)CCC3 [Compound 21] | 159% | 99.4% | 10.77 | 62.7% | 4.66 | 7.16 | 63.1% | 6.26 µM | 20.2 µM | 46.5% | 47.9 µM | 69.7% | 12.1 µM | 44.8 µM | 44.8 µM | 8.02 µM | 44.8 µM | 44.8 µM | 44.8 µM | 44.8 µM | EC50 [1]: 8.09 µM; HCV TI [1]: 0.99; EC50 (RSV minigenome; [2]): 4.16 µM; EC50 (WNV (WN-hRuPac cells); Secondary Data, WNV): 9.62 µM
CCOC(=O)c1cnc2ccc(C)cc2c1NCc1ccco1 [Compound 39] | 22.4% | 91.6% | 18.33 | 102% | 4.94 | 8.95 | 96.6% | 3.01 µM | 7.1 µM | 64.1% | 7.22 µM | 71.9% | ≥ 75 µM | 26.9 µM | 26.9 µM | ≥ 75 µM | 26.9 µM | 26.9 µM | 26.9 µM | 26.9 µM | EC50 (RSV minigenome; [2]): 1.47 µM; EC50 (WNV (WN-hRuPac cells); Secondary Data, WNV): 5.46 µM
CCOC(=O)c1cnc2ccc(OCC)cc2c1Nc1ccc(I)cc1 [Compound 32] | -11.1% | 48.3% | 21.43 | -2.69% |  |  | -16.9% | ≥ 75 µM | ≥ 75 µM | 31.9% | 75 µM | -17.6% | ≥ 75 µM | ≥ 75 µM | ≥ 75 µM | ≥ 75 µM | ≥ 75 µM | ≥ 75 µM | ≥ 75 µM | ≥ 75 µM | EC50 (RSV minigenome; [2]): 3.5 µM; EC50 (WNV (WN-hRuPac cells); Secondary Data, WNV): ≥ 75 µM
COc1ccc2nc(C)cc(Nc3ccc(OCc4ccccc4Cl)cc3)c2c1 [Compound 43] | 95.4% | 100% | 11.63 | 99.9% | 4.78 | 18.48 | 100% | 1.41 µM | 1.65 µM | 98.7% | 75 µM | 99.7% | 4.08 µM | 26.1 µM | 26.1 µM | 2.09 µM | 26.1 µM | 26.1 µM | 26.1 µM | 26.1 µM | EC50 [1]: 1.6 µM; HCV TI [1]: 1.31; EC50 (RSV minigenome; [2]): 2.24 µM; EC50 (WNV (WN-hRuPac cells); Secondary Data, WNV): 5.45 µM
CCOc1ccc2nc(C)cc(Nc3ccc(OCc4ccccc4Cl)cc3)c2c1 [Compound 42] | 96.5% | 100% | 17.29 | 100% | 13.47 | 14.22 | 100% | 1.8 µM | 5.05 µM | 99.5% | 65.8 µM | 99.8% | 2.99 µM | 25.6 µM | 25.6 µM | 1.21 µM | 25.6 µM | 25.6 µM | 25.6 µM | 25.6 µM | EC50 [1]: 1.3 µM; HCV TI [1]: 0.93; EC50 (RSV minigenome; [2]): 1.48 µM; EC50 (WNV (WN-hRuPac cells); Secondary Data, WNV): 1.9 µM
COC(=O)c1ccc(Nc2cc(C)nc3ccc(Cl)cc23)cc1 [Compound 60] | 71.3% | 38.1% |  | 68.3% | 5.14 | 2.17 | 79.4% | 34.6 µM | 15.2 µM | 57.4% | 75 µM | 45.8% | 12 µM | ≥ 75 µM | ≥ 75 µM | 45.5 µM | ≥ 75 µM | ≥ 75 µM | ≥ 75 µM | ≥ 75 µM | EC50 [1]: 1.4 µM; HCV TI [1]: 32.5; EC50 (RSV minigenome; [2]): ≥ 75 µM; EC50 (WNV (WN-hRuPac cells); Secondary Data, WNV): 14.6 µM
Cc1cc(C)c2nc(C)cc(NCc3ccco3)c2c1 [Compound 54] | 101% | 87.9% | 8.66 | 84.4% | 7.26 | 12.13 | 91.1% | 4.14 µM | 21.9 µM | 38.4% | 75 µM | 47.8% | 38.3 µM | 50.2 µM | 50.2 µM | 23.9 µM | 50.2 µM | 50.2 µM | 50.2 µM | 50.2 µM | EC50 [1]: 26 µM; HCV TI [1]: 0.92; EC50 (RSV minigenome; [2]): 5.8 µM; EC50 (WNV (WN-hRuPac cells); Secondary Data, WNV): 6.91 µM
